Assays:
[1] = system: Mnk2 (Mnk2a or Mnk2b) or Mnk1; details: addition to cell culture cells transfected with Mnk2 (Mnk2a or Mnk2b) or Mnk1; cited from earlier work
[2] = target: T1, MNK2 (Homo sapiens, UniProt Q9HBH9); assay: Mnk2a in vitro kinase assay (indirect fluorescence polarization); assay type: biochemical; details: pre-activated GST-Mnk2a 2.5 nM, 20 μM ATP, 30 μM substrate peptide
T1 construct: the open reading frames of human Mnk1 and Mnk2a were amplified from cDNA; made in house; host or cells: E. coli BL21
T1 sequence (Q9HBH9 whole entry): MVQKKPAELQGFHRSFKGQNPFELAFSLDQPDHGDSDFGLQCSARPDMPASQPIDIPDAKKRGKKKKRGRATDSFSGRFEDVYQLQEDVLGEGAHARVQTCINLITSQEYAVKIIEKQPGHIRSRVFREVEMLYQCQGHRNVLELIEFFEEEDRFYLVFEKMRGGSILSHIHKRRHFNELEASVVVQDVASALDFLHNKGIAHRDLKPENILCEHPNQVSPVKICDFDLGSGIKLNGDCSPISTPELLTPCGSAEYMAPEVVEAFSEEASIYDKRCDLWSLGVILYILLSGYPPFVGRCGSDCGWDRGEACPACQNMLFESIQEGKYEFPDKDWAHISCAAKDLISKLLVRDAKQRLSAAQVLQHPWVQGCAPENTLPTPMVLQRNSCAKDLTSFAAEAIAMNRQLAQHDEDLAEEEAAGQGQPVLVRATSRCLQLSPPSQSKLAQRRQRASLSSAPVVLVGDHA
Method in brief: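 Human GST-Mnk2a was expressed in E. coli and activated in vitro with 150 nM pre-activated ERK2 and 50 μM ATP in HEPES pH 7.4/MgCl2 buffer (45 min, 30 °C). Activity on an eIF4E Ser209-derived 12mer peptide was read by competitive fluorescence polarization with a phospho-specific antibody.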

| Structure (SMILES) | IC50 [2] [nM] | reduction of phosphorylated eIF4E [1] |
| --- | --- | --- |
| Nc1ncnc2n[nH]c(Nc3ccc(F)cc3)c12 [CGP57380] | – | strong reduction |
| CO[C@@H]1CCCC[C@H]1Oc1cc(F)ccc1Nc1ncnc2sc(C(N)=O)c(C)c12 [Example 249, 4-[4-Fluoro-2-((1R,2R)-2-methoxy-cyclohexyloxy)-phenylamino]-5-methyl-thieno[2,3-d]pyrimidine-6-carboxylic acid amide] | 6 | – |
| CO[C@@H]1CCCC[C@H]1Oc1cc(F)ccc1Nc1ncnc2sc(C(=O)NCCSC)c(C)c12 [Example 252] | 18 | – |
| Cc1c(C(=O)NCCCN2CCCC2)sc2ncnc(Nc3ccc(F)cc3OC3CCCCC3O)c12 (stereo not drawn) [Example 263] | 175 | – |
| Cc1c(C(=O)NCCCN2CCCC2)sc2ncnc(Nc3cccnc3O[C@H]3CC[C@H](O)CC3)c12 [Example 268] | 14 | – |
| Cc1c(C(=O)NC2CCN(C)CC2)sc2ncnc(Nc3cccnc3O[C@H]3CC[C@H](O)CC3)c12 [Example 269] | 24 | – |
| Cc1c(C(=O)NCCCN2CCC2)sc2ncnc(Nc3cccnc3O[C@H]3CC[C@H](O)CC3)c12 [Example 270] | 58 | – |
| Cc1c(C(=O)NCCCN2CCCC2=O)sc2ncnc(Nc3ccc(F)cc3O[C@H]3CC[C@H](O)CC3)c12 [Example 271, 4-[4-Fluoro-2-(trans-4-hydroxy-cyclohexyloxy)-phenylamino]-5-methyl-thieno[2,3-d]pyrimidine-6-carboxylic acid [3-(2-oxo-pyrrolidin-1-yl)-propyl]amide] | 12 | – |
| CCN(CC)CCCNC(=O)c1sc2ncnc(Nc3ccc(F)cc3O[C@H]3CC[C@H](OC)CC3)c2c1C [Example 276] | 12 | – |
| CO[C@H]1CC[C@H](Oc2cc(F)ccc2Nc2ncnc3sc(C(=O)NCC(O)CN(C)C)c(C)c23)CC1 (stereo partly drawn) [Example 277] | 13 | – |
| CO[C@H]1CC[C@H](Oc2cc(F)ccc2Nc2ncnc3sc(C(=O)NCCCN4C(=O)CCC4=O)c(C)c23)CC1 [Example 280] | 9 | – |
| Cc1c(C(=O)O)sc2ncnc(Nc3cccnc3O[C@H]3CC[C@H](N)CC3)c12 [Example 282, 4-[2-(4-Amino-cyclohexyloxy)-pyridin-3-ylamino]-5-methyl-thieno[2,3-d]pyrimidine-6-carboxylic acid] | 11 | – |
| CNC(=O)c1sc2ncnc(Nc3cccnc3O[C@H]3CC[C@H](N)CC3)c2c1C [Example 285] | 9 | – |
| Cc1c(C(=O)NC(C)C)sc2ncnc(Nc3cccnc3O[C@H]3CC[C@H](N)CC3)c12 [Example 287] | 5 | – |
| CCCNC(=O)c1sc2ncnc(Nc3cccnc3O[C@H]3CC[C@H](N)CC3)c2c1C [Example 289, 4-[2-(4-Amino-cyclohexyloxy)-pyridin-3-ylamino]-5-methyl-thieno[2,3-d]pyrimidine-6-carboxylic acid propyl amide] | 2 | – |
| Cc1c(C(=O)O)sc2ncnc(Nc3ccc(F)cc3O[C@H]3C[C@@H]4OCO[C@@H]4C3)c12 [Example 290, 4-[4-Fluoro-2-(tetrahydro-cyclopenta[1,3]dioxol-5-yloxy)phenylamino]-5-methyl-thieno[2,3-d]pyrimidine-6-carboxylic acid] | 8 | – |
| COC(=O)N[C@H]1CCC[C@@H]1Oc1cc(F)ccc1Nc1ncnc2sc(C(N)=O)c(C)c12 [Example 294] | 183 | – |
| CC(=O)N[C@H]1CCC[C@@H]1Oc1cc(F)ccc1Nc1ncnc2sc(C(N)=O)c(C)c12 [Example 295, (1S,2S) 4-{2-[2-(Acetyl-amino)-cyclopentyloxy]-4-fluoro-phenylamino}-5-methyl thieno[2,3-d]pyrimidine-6-carboxylic acid amide] | 95 | – |

Continued by falling IC50 [2], values first:

| IC50 [2] [nM] | Structure (SMILES) | reduction of phosphorylated eIF4E [1] |
| --- | --- | --- |
| 377 | Cc1c(C(N)=O)sc2ncnc(Nc3ccc(F)cc3O[C@H]3CCC[C@@H]3NC(=O)C3CC3)c12 [Example 293, (1S,2S) 4-{2-[2-(Cyclopropanecarbonyl-amino)-cyclopentyloxy]-4-fluoro-phenylamino}-5-methyl thieno[2,3-d]pyrimidine-6-carboxylic acid amide] | – |
| 66 | COC(=O)c1sc2ncnc(Nc3cccnc3O[C@H]3CC[C@H](N)CC3)c2c1C [Example 281, 4-[2-(4-Amino-cyclohexyloxy)-pyridin-3-ylamino]-5-methyl-thieno[2,3-d]pyrimidine-6-carboxylic acid methyl ester] | – |
| 46 | Cc1c(C(=O)NC2CCN(C)CC2)sc2ncnc(Nc3ccc(F)cc3O[C@H]3C[C@@H]4OCO[C@@H]4C3)c12 [Example 292] | – |
| 20 | CO[C@@H]1CCCC[C@H]1Oc1cc(F)ccc1Nc1ncnc2sc(C(=O)N[C@@H]3CCC[C@H]3O)c(C)c12 [Example 251] | – |
| 19 | COC1CCCCC1Oc1cc(F)ccc1Nc1ncnc2sc(C(=O)NC3CCCC3O)c(C)c12 (stereo not drawn) [Example 250] | – |
| 19 | Cc1c(C(=O)NCCO)sc2ncnc(Nc3cccnc3O[C@H]3CC[C@H](N)CC3)c12 [Example 288] | – |
| 19 | Cc1c(C(=O)NCCCN2CCCC2)sc2ncnc(Nc3ccc(F)cc3O[C@H]3C[C@@H]4OCO[C@@H]4C3)c12 [Example 291, 4-[4-Fluoro-2-(tetrahydro-cyclopenta[1,3]dioxol-5-yloxy)phenylamino]-5-methyl-thieno[2,3-d]pyrimidine-6-carboxylic acid (3-pyrrolidin-1-yl-propyl)-amide] | – |
| 15 | Cc1c(C(=O)NCCO)sc2ncnc(Nc3cccnc3O[C@H]3CC[C@H](O)CC3)c12 [Example 266, 4-[2-(trans-4-hydroxy-cyclohexyloxy)-pyridine-3-ylamino]-5-methyl-thieno[2,3-d]pyrimidine-6-carboxylic acid (2-hydroxy-ethyl)-amide] | – |
| 14 | CO[C@@H]1CCCC[C@H]1Oc1cc(F)ccc1Nc1ncnc2sc(C(=O)NCC[S+](C)[O-])c(C)c12 (stereo partly drawn) [Example 255] | – |
| 11 | CO[C@@H]1CCCC[C@H]1Oc1cc(F)ccc1Nc1ncnc2sc(C(=O)NCCCN3CCCC3)c(C)c12 [Example 254] | – |
| 11 | CO[C@H]1CC[C@H](Oc2cc(F)ccc2Nc2ncnc3sc(C(=O)NCCCN4CCCC4=O)c(C)c23)CC1 [Example 279] | – |
| 10 | CO[C@@H]1CCCC[C@H]1Oc1cc(F)ccc1Nc1ncnc2sc(C(=O)O)c(C)c12 [Example 248, 4-[4-Fluoro-2-((1R,2R)-2-methoxy-cyclohexyloxy)-phenylamino]-5-methyl-thieno[2,3-d]pyrimidine-6-carboxylic acid] | – |
| 10 | Cc1c(C(=O)NCC#CCN(C)C)sc2ncnc(Nc3cccnc3O[C@H]3CC[C@H](O)CC3)c12 [Example 267] | – |
| 10 | CO[C@H]1CC[C@H](Oc2cc(F)ccc2Nc2ncnc3sc(C(=O)NCCCN4CCCCC4)c(C)c23)CC1 [Example 275] | – |
| 10 | CCNC(=O)c1sc2ncnc(Nc3cccnc3O[C@H]3CC[C@H](N)CC3)c2c1C [Example 284] | – |
| 7 | CO[C@H]1CC[C@H](Oc2cc(F)ccc2Nc2ncnc3sc(C(=O)NCCCN(CCO)CCO)c(C)c23)CC1 [Example 278] | – |
| 6 | Cc1c(C(N)=O)sc2ncnc(Nc3cccnc3O[C@H]3CC[C@H](N)CC3)c12 [Example 283, 4-[2-(4-Amino-cyclohexyloxy)-pyridin-3-ylamino]-5-methyl-thieno[2,3-d]pyrimidine-6-carboxylic acid amide] | – |
| 4 | CCCCNC(=O)c1sc2ncnc(Nc3cccnc3O[C@H]3CC[C@H](N)CC3)c2c1C [Example 286] | – |
